Consider 135 compounds from the OPERA property sets (Mansouri et al. 2018).

Peptide text beside a SMILES is read from it.

Broadly, the logP is the decadic logarithm of the partition coefficient of the neutral form, usually between octanol and water. A high value points to higher lipophilicity. In the case of `CCCC[Si](C)(C)C`, the logP amounted to 4.2.
With `COC(=O)c1ccc(S(I)=C(N(C)C)N(C)C)cc1` (stereo not given) the figure was -0.74.
Turning to `O=Cc1ccc(OCC(=O)O)cc1`, the logP turned out to be 0.79.
Under `CCOc1ccccc1-c1nc(N)nc(N)n1` stands 1.03; under `COC(=O)C(CC(C)C)NC(C)=O` (stereo not given), 0.84.
`Nc1ccc(Cl)nn1` had a logP of 0.35.
Under `C=C(C)C(=O)OC` stands 1.38; under `CC1CCCCN1N=O` (stereo not given), 0.71; under `CCc1ccccc1-c1nc(N)nc(N)n1`, 1.65.
Regarding `CC(Br)C(=O)O` (stereo not given), the logP worked out at 0.92.
Under `S=C1CCCO1` stands 0.6; under `CC(=O)OCCn1c([N+](=O)[O-])cnc1C`, 0.3.
Turning to `CCCC(N)=O`, the logP is -0.21.
Take `Nc1ccc(C(=O)Oc2ccc(Cl)cc2)c(O)c1`: the logP turned out to be 3.6.
Under `NNC(=O)c1cccc(O)c1` stands -0.08.
`COC(=O)c1cccnc1` had a logP of 0.83.
Compound `CCc1cccc(N2C(=O)CCC2=O)c1` came in with a logP of 1.04.
With `CCCCNc1nc(NCC)nc(SC(F)F)n1`, the lipophilicity (logP) worked out at 4.51.
Under `CCN(CC)CCNC(=O)c1cc(F)c(N)cc1OC` stands 2.28; under `COc1ccccc1`, 2.11; under `CC(C)NNC(=O)COc1ccc(Cl)cc1`, 2.02.
In turn, `O=[N+]([O-])c1ccc2nc(C(F)(F)F)[nH]c2c1` displayed a logP of 2.68.
Compound `NC(N)=Nc1ccccc1` displayed a logP of 0.53.
In the case of `Oc1ccc(Sc2ccc(O)cc2)cc1`, the logP came to 3.34.
`C#C[C@]1(O)CC[C@H]2[C@@H]3CCC4=CC(=O)CC[C@@H]4[C@H]3CC[C@@]21C`: the logP stood at 2.97.
The compound `CCC(C)OC(=O)C(C(=O)OC(C)CC)=C1SCCS1` (stereo not given) returned a logP of 4.53.
With `CCNCCNCC` the figure was 0.21; with `COc1cc([C@@H]2c3cc4c(cc3[C@H](O)[C@H]3COC(=O)[C@H]23)OCO4)cc(OC)c1OC`, 2.01.
Under `CCCOc1cccc(C=C(C(C)=O)C(=O)OCC)c1` stands 3.34.
Take `CC(=O)Nc1ccc2c(c1)[nH]c1ccccc12`: the logP turned out to be 3.02.
In turn, `CNC(=O)c1ccco1` registered a logP of 0.23.
`NC(=O)C(Cl)(Cl)Cl` registered a logP of 1.04.
As for `Cc1ccc(C)c(O)c1`, the logP is 2.33.
Regarding `O=C(O)c1cc(Cl)ccc1[N+](=O)[O-]`, the logP was 2.13.
`Cc1cnc2ccccc2c1` registered a logP of 2.53.
Take `O=C(O)C=CC=Cc1ccccc1`: the logP amounted to 3.15.
With `NNc1ccc([N+](=O)[O-])cc1` the figure was 1.41; with `CCOc1ccc(S(I)=C(N(C)C)N(C)C)cc1` (stereo not given), -0.06; with `CNC(=O)Oc1ccccc1Cl`, 1.64.
In turn, `CC(=O)OCCBr` had a logP of 1.11.
In the case of `CN1C(=O)CN=C(c2ccccc2F)c2cc(F)ccc21`, the logP worked out at 2.41.
As to `CC(=O)NCC(=O)N[C@@H](Cc1ccccc1)C(N)=O` (Ac-Gly-Phe-NH2), the logP is -0.56.
Regarding `O=c1[nH]c(=O)n([C@H]2C[C@H](O)[C@@H](CO)O2)cc1F`, the logP was -1.16.
`Clc1cccc(-c2ccccc2)c1` yielded a logP of 4.58.
Compound `CCCCCNc1nc(NCC)nc(SC(F)F)n1` displayed a logP of 4.71.
Consider `NC(CCCc1ccccc1)C(=O)O` (stereo not given), for which the logP was -0.36.
With `O=C(O)COc1ccc2c(c1)CCCC2`, the logP is 2.67.
For the compound `COC(OC)(OC)c1ccccc1`, the logP is 2.27.
With `O=C1C=C(N2CC=CC2)C(=O)c2ccccc21` the figure was 2.85; with `CCSc1ccc2c(c1)N(CCCN1CCN(C)CC1)c1ccccc1S2`, 5.41.
With `C=CCCBr`, the logP is 2.53.
The compound `COc1ccc2cc(C(C)C(=O)OCC(=O)N(C)CC(N)=O)ccc2c1` (stereo not given) gave a logP of 1.37.
In turn, `Cc1nn(-c2ccccc2)c(C)c1N=O` came in with a logP of 2.28.
`O=Cc1cccc([N+](=O)[O-])c1` yielded a logP of 1.47.
Compound `N#Cc1cccc(OCC(=O)O)c1` registered a logP of 0.95.
Turning to `Nc1ccc(I)cc1`, the logP was 2.34.
`CCN(CC)CCNC(=O)c1cc(I)c(N)cc1OC` registered a logP of 3.09.
Under `CN(CCO)N=Nc1ccc(C(N)=O)cc1` stands 0.26.
Under `CCCCOc1ccc(C(N)=O)cc1` stands 2.48.
Under `O=C1CN=C(c2ccccc2F)c2ccccc2N1` stands 2.38; under `CC(=O)[C@H]1CC[C@H]2[C@@H]3CC=C4C[C@@H](O)CC[C@]4(C)[C@H]3CC[C@]12C`, 4.22.
In turn, `CCOC(=O)c1cccs1` yielded a logP of 2.33.
Turning to `O=C(Cn1cnc([N+](=O)[O-])n1)N1CCOCC1`, the logP was -0.96.
`CCOC(=O)c1cccc([N+](=O)[O-])c1` gave a logP of 2.35.
With `COC(=O)Cc1cccs1`, the logP stood at 1.51.
For `CSc1ccc(COC(=O)N(C)C)cc1`, the logP is 2.86.
`COc1cc(C(O)CO)ccc1O` (stereo not given) came in with a logP of -0.58.
`CCc1cccc(O)c1`: the logP came out at 2.4.
`CCC(C)n1c(=O)[nH]c(C)c(Br)c1=O` (stereo not given) registered a logP of 2.11.
In turn, `O=[N+]([O-])c1ccc2ncccc2c1` came in with a logP of 1.84.
Under `Oc1ccc(Cl)c(Cl)c1Cl` stands 3.8.
For `O=C(OCC1CCC(n2cnc3c(=O)[nH]cnc32)O1)c1ccccc1` (stereo not given), the logP is 0.66.
For `CCN(CC)c1nc(C)cc(OP(=S)(OC)OC)n1`, the logP came out at 4.2.
As to `O=S(=O)(Nc1ccc(-c2ccccc2)cc1)C(F)(F)F`, the logP came to 4.97.
`CC(=O)c1ccccc1NCC#N` displayed a logP of 1.58.
With `C1CO1` the figure was -0.3; with `c1ccc2cnncc2c1`, 0.57; with `CCCCCNc1nc(NC(C)C)nc(SC(F)F)n1`, 5.2.
With `Cc1ccccc1OCC(=O)NNC(C)C` the figure was 1.83; with `O=Nc1ccccc1`, 2.01; with `Cc1ccc2ncccc2c1`, 2.57.
`COCCN(CCOC)N=O`: the logP was -0.38.
`CNC` registered a logP of -0.38.
In the case of `O=[N+]([O-])c1ccc(N2CCCCC2)cc1`, the logP amounted to 3.26.
`Nc1cccc(N)c1` yielded a logP of -0.33.
For `CC(C)(C)N(CC(O)COc1ccccc1)CC(O)COc1ccccc1` (stereo not given), the logP worked out at 3.99.
In turn, `CCC(=O)Nc1ccccc1` had a logP of 1.61.
On to `O=c1ccn(C2OC(CO)C(O)C2O)c(=O)[nH]1` (stereo not given), for which the logP is -1.98.
`CON(C)C(=O)Nc1ccc(Cl)cc1` gave a logP of 2.3.
The compound `COC(=O)c1ccccc1N` showed a log partition coefficient (logP) of 1.88.
Under `C=C(CC(Cl)(Cl)Cl)c1ccccc1` stands 4.56.
Compound `CCCC(=O)OC1(C(=O)CCl)C(C)CC2C3CCC4=CC(=O)C=CC4(C)C3(F)C(O)CC21C` (stereo not given) gave a logP of 3.63.
Compound `CCC(O)CC` returned a logP of 1.21.
Compound `C#C[C@]1(O)CC[C@H]2[C@@H]3CCC4=CC(=O)CC[C@]4(C)[C@H]3CC[C@@]21C` showed a logP of 3.11.
`O=Nc1c(O)ccc2ccccc12` came in with a log partition coefficient (logP) of 2.28.
The compound `O=C(O)c1c[nH]c2ccccc12` displayed a logP of 1.99.
Compound `O=C(CN1CCCCC1)Nc1ccc(Br)cc1` registered a logP of 3.57.
Compound `NC(Cc1c[nH]c2cc(F)ccc12)C(=O)O` (stereo not given) returned a logP of -0.78.
Turning to `COc1ccc(NC(=O)NC(=N)N)cc1`, the logP worked out at 0.56.
Take `O=C(NN1CCCCCC1)NS(=O)(=O)c1ccc(Cl)cc1`: the logP turned out to be 1.64.
`COC1=CC(=O)c2ccccc2C1=O` showed a logP of 1.35.
In the case of `C1CCNC1`, the logP worked out at 0.46.
With `c1ccc(-c2ccc(NCCN3CCOCC3)nn2)cc1` the figure was 1.85.
Under `COC1C(O)C(C)OC(OC2CCC3(C)C(CCC4C3CCC3(C)C(C5=CC(=O)OC5)CCC43O)C2)C1O` (stereo not given) stands 2.1.
In the case of `NC(=O)c1ccc(I)cc1`, the logP is 1.99.
With `CC(=O)Oc1cccc([N+](=O)[O-])c1` the figure was 1.82.
In turn, `C=CCN1CC[C@]23c4c5ccc(O)c4O[C@H]2[C@@H](O)C=C[C@H]3[C@H]1C5` gave a logP of 1.86. The logP values of the last two compounds are within 0.2 log units of each other.
As to `O=C(O)CONC(=O)c1ccccc1`, the logP was -0.27.
For `Nc1ccc(OC(=O)c2ccc(N)cc2O)cc1`, the logP amounted to 2.04.
Consider `CON(C)C(=O)Nc1ccc(F)cc1`, for which the logP worked out at 1.46.
With `FC(F)(F)C(Cl)Br` (stereo not given) the figure was 2.3; with `Nc1ccc(S(=O)(=O)Nc2ccc(S(N)(=O)=O)cc2)cc1`, 0.35; with `CCCCCCOC(=O)C(CC)C(CO)Cc1cncn1C` (stereo not given), 2.71.
With `CCCN(CCC)C(=O)SCC` the figure was 3.21.
Under `CN(C)C(N(C)C)=S(I)c1cccc(C#N)c1` (stereo not given) stands -1.1.
Consider `N#Cc1ccc2[nH]ccc2c1`, for which the logP was 2.38.
As for `CCCC(N)Cc1ccccc1` (stereo not given), the logP turned out to be 2.79.
For `CCCc1ccc([N+](=O)[O-])cc1`, the logP came out at 3.45.
`S=P(N1CC1)(N1CC1)N1CC1` yielded a lipophilicity (logP) of 0.53.
Regarding `CC(=O)Nc1ccc(Br)cc1`, the logP is 2.29.
In the case of `O=C(COc1ccccc1)NNCc1ccccc1`, the logP was found to be 2.16.
Under `NCc1cc(O)no1` stands -2.39; under `CNC(=O)c1ccccc1`, 0.86.
With `CC(=O)Nc1cccc(C(F)(F)F)c1` the figure was 2.56; with `CCCCCC1(CC)C(=O)NC(=O)NC1=O`, 2.24; with `COc1cc(Cl)c(Nc2ccccc2CC(=O)O)c(Cl)c1`, 4.44.
`O=[N+]([O-])c1cccc(SSc2cccc([N+](=O)[O-])c2)c1` returned a logP of 4.06.
`NCCCCc1ccccn1` had a logP of 0.86.
Turning to `O=C(OCn1ncc2c(=O)[nH]cnc21)c1cccc(CN2CCOCC2)c1`, the logP stood at 1.13.
As to `CNC(=O)c1ccccc1C(=O)c1ccccc1`, the logP was determined as 2.09.
In turn, `CCOC(=O)C(=O)c1cccs1` showed a logP of 1.77.
With `COc1ccc(C(C#N)C(C)C)cc1` (stereo not given) the figure was 2.68.
Under `O=C(NC(CO)C(O)c1ccc(-c2ccccc2)cc1)C(Cl)Cl` (stereo not given) stands 2.86.
`Clc1cc(Cl)c(Cl)c(Cl)c1`: the logP turned out to be 4.56.
In turn, `C1=CCCCC1` gave a logP of 2.86.
